Results as given in PubChem BioAssay (NCI).
Where “and” joins values, the source holds several entries; their conditions need not be identical. Equal entries are not always repeated.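 Protocol summary: plate cells (96-well), add compound at 5 concentrations, incubate 48 h, interpolate endpoints linearly. GI50 is the concentration that inhibits growth by half. TGI is the concentration that stops growth completely.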 *1 amine or outer side, *2 acyl side, *3 side chain or, on linkers, in order; H or OH if unused. Where a SMILES comes first, the peptide text is derived from it. Bridges are numbered along the chain shown (N, C = ends). [ ]: non-standard residue; d: D form. The star is where a group is joined. X19 = O=C([C@H](N[*:1])c1ccc(O[C@H]2O[C@@H](CO)[C@@H](O)[C@@H](O)[C@H]2O[C@@H]2O[C@H](CO)[C@H](O)[C@H](O)[C@@H]2O)cc1)[*:2]; X18 = NC(=O)[C@@H](O[*:3])[C@H](N[*:1])C(=O)[*:2]; X20 = O=C([C@H](N[*:1])c1ccc(O)c(Cl)c1)[*:2]; d(aThr) = C[C@@H](O)[C@@H](N)C(=O)O; dHpg = N[C@@H](C(=O)O)c1ccc(O)cc1; X17 = CC(C)C/C=C/C=C/C(=O)*; dOrn = NCCC[C@@H](N)C(=O)O

What was measured:
Test in all cases: growth of human tumour cells (NCI), 48 h
ACHN renal = system: ACHN renal
EKVX NSCLC = system: EKVX NSCLC
HL-60(TB) leukemia = system: HL-60(TB) leukemia
MALME-3M melanoma = system: MALME-3M melanoma
NCI-H460 lung = system: NCI-H460 lung
SN12C renal = system: SN12C renal
TK-10 renal = system: TK-10 renal
U251 CNS = system: U251 CNS
UACC-257 melanoma = system: UACC-257 melanoma
UACC-62 melanoma = system: UACC-62 melanoma

| SMILES | GI50 (ACHN renal) | TGI (ACHN renal) | GI50 (EKVX NSCLC) | TGI (EKVX NSCLC) | GI50 (HL-60(TB) leukemia) | TGI (HL-60(TB) leukemia) | GI50 (MALME-3M melanoma) | TGI (MALME-3M melanoma) | GI50 (NCI-H460 lung) | TGI (NCI-H460 lung) | GI50 (SN12C renal) | TGI (SN12C renal) | GI50 (TK-10 renal) | TGI (TK-10 renal) | GI50 (U251 CNS) | TGI (U251 CNS) | GI50 (UACC-257 melanoma) | TGI (UACC-257 melanoma) | GI50 (UACC-62 melanoma) | TGI (UACC-62 melanoma) |
| --- | --- | --- | --- | --- | --- | --- | --- | --- | --- | --- | --- | --- | --- | --- | --- | --- | --- | --- | --- | --- |
| O=C(O[C@H]1CN[C@H](C#Cc2cc3ncnc(Nc4ccc(OCc5cccc(F)c5)c(Cl)c4)c3s2)C1)N1CCOCC1 | 4.27 µM | > 25 µM | 600 nM | 24.2 µM | 6.11 µM | 15.1 µM | 4.95 µM | 10.2 µM | 6.4 µM | > 25 µM | 5.66 µM | > 25 µM | 0.17 µM | 8.41 µM | 8.7 µM | > 25 µM | > 19.1 µM | > 25 µM | 13.4 µM | > 25 µM |
| COc1cc([C@@H]2c3cc4c(cc3[C@H](OC(C)=O)[C@H]3COC(=O)[C@H]23)OCO4)cc(OC)c1OC | 0.044 µM | > 100 µM | 56.8 nM | > 100 µM | 0.0223 µM | 0.0602 µM | > 100 µM | > 100 µM | 0.0317 µM | > 100 µM | 0.0457 µM | > 100 µM | 75.2 µM | > 100 µM | 0.0352 µM | > 100 µM | > 100 µM | > 100 µM | 0.0598 µM | > 100 µM |
| CC1=C2C(=O)C(C)(C)C=C2C(=O)[C@](C)(O)C12CC2 |  | > 1 µM |  | > 1 µM |  | 0.66 µM |  | > 0.946 µM |  | > 1 µM |  | > 1 µM |  | > 1 µM |  | > 1 µM |  | > 1 µM |  | > 1 µM |
| CC(C)C/C=C/C=C/C(=O)N[C@@H](CC(N)=O)C(=O)N[C@@H]1C(=O)N[C@H](c2ccc(O)cc2)C(=O)N[C@H](CCCN)C(=O)N[C@H]([C@@H](C)O)C(=O)N[C@H](c2ccc(O)cc2)C(=O)N[C@H](c2ccc(O)cc2)C(=O)N[C@H]([C@H](C)O)C(=O)N[C@H](Cc2ccccc2)C(=O)N[C@H](CCCN)C(=O)N[C@H](c2ccc(O[C@H]3O[C@@H](CO)[C@@H](O)[C@@H](O)[C@H]3O[C@@H]3O[C@H](CO)[C@H](O)[C@H](O)[C@@H]3O)cc2)C(=O)N[C@H]([C@H](C)O)C(=O)N[C@H](c2ccc(O)cc2)C(=O)NCC(=O)N[C@H](CC(C)C)C(=O)N[C@H](C)C(=O)N[C@H](c2ccc(O)c(Cl)c2)C(=O)O[C@@H]1C(N)=O (X17-N[X18][dHpg][dOrn][d(aThr)][dHpg][dHpg][dT][dF][dOrn][X19][dT][dHpg]G[dL][dA][X20]; ester 2-C) | 68.7 µM | > 100 µM | 50600 nM | > 100 µM | > 100 µM | > 100 µM | 29.7 µM | 65.5 µM | 23.5 µM | 66.9 µM | > 100 µM | > 100 µM | 38.7 µM | 91.1 µM | 24.1 µM | 55 µM | 21.9 µM | 47.4 µM | 21.2 µM | 45.1 µM |
| C/C=C1\C(=O)O[C@@H]2C1C[C@@H]1O[C@H]2[C@H](C)CCC/C(C)=C/CC[C@@]1(C)O (stereo not given in full) | 2.77 µM | 14.5 µM | 2220 nM | 5.53 µM | 5.55 µM | > 100 µM | 3.47 µM | 18.5 µM | 4.81 µM | 25.7 µM | 3.54 µM | 13 µM | 4.46 µM | 13.5 µM | 10.3 µM | 23.6 µM | 4.2 µM | 10.9 µM | 7.16 µM | 20.7 µM |
| CCN(CC)CCOC(=O)/C(=C/c1ccc(OC)cc1)c1cc(OC)c(OC)c(OC)c1 |  | > 100 µM |  | > 100 µM |  | 16.4 µM |  | 34.1 µM |  | 51.2 µM |  | 57.5 µM |  | > 100 µM |  | 25.5 µM |  | 19.3 µM |  | 24.1 µM |
| CCC(O)(c1ccc(OC)cc1)C(c1ccc(OCc2ccccc2)cc1)c1ccc(OCc2ccccc2)cc1 (stereo not given) |  | > 100 µM |  | > 100 µM |  | > 100 µM |  | > 100 µM |  | > 100 µM |  | > 100 µM |  | > 100 µM |  | > 100 µM |  | > 100 µM |  | > 100 µM |
| O=C1/C=C/[C@@H](O)[C@@H]2C[C@@H](O)C[C@H]2/C=C/CCC[C@H](CO)O1 | 3.97 µM | > 100 µM | 3110 nM | > 100 µM | 2.24 µM | 8.29 µM | 1.93 µM | 7.19 µM | 3.21 µM | > 100 µM | 4.24 µM | > 100 µM | 3.06 µM | 10.9 µM | 3.3 µM | > 100 µM | 1.68 µM | > 100 µM | 2.55 µM | > 100 µM |
| C[C@@H](NC1CCC[C@@H]1O)c1ccccc1 (stereo not given in full) |  | > 100 µM |  | > 100 µM |  | > 100 µM |  | > 100 µM |  | > 100 µM |  | > 100 µM |  | > 100 µM |  | > 100 µM |  | > 100 µM |  | > 100 µM |
| CCCCCCCC(=O)OCC1OC(n2cc(F)c(=O)[nH]c2=O)C(NC(=O)OCc2ccccc2)C(OC(=O)CCCCCCC)C1O (stereo not given) |  | > 100 µM |  | > 100 µM |  | 40.8 µM |  | 44.2 µM |  | > 100 µM |  | 27.4 µM |  | > 100 µM |  | 60.9 µM |  | > 100 µM |  | 45.7 µM |
| CC(C)(C)N1CC(OC(N)=O)C1 | > 100 µM | > 100 µM | > 100000 nM | > 100 µM | > 100 µM | > 100 µM | > 100 µM | > 100 µM | > 100 µM | > 100 µM | > 100 µM | > 100 µM | > 100 µM | > 100 µM | > 100 µM | > 100 µM | > 100 µM | > 100 µM | > 100 µM | > 100 µM |
| COc1cc2c(Nc3ccc(Br)cc3F)ncnc2cc1OCC1CCN(C)CC1 | 0.471 µM and 0.556 µM | 11.4 µM and > 10 µM | 286 nM and 401 nM | 10.3 µM and > 10 µM | 2.65 µM and 3.14 µM | 7.56 µM and > 10 µM | 1.83 µM and 4.47 µM | 3.85 µM and > 10 µM | 4.69 µM and 9.98 µM | 17 µM and > 10 µM | 1.58 µM and 3.04 µM | 12.1 µM and > 10 µM | 0.317 µM and 0.54 µM | 6.58 µM and > 10 µM | 4.81 µM and 7.68 µM | 17.1 µM and > 10 µM | 1.85 µM and 1.73 µM | 3.44 µM and 3.6 µM | 1.8 µM and 2.79 µM | 4.03 µM and > 10 µM |
| C[C@@H](Oc1cc(NS(=O)(=O)N2CCC2)nc(SCc2cccc(F)c2F)n1)[C@@H](O)CO | > 100 µM | > 100 µM | > 100000 nM | > 100 µM | > 100 µM | > 100 µM | > 100 µM | > 100 µM | > 100 µM | > 100 µM | > 100 µM | > 100 µM | > 100 µM | > 100 µM | > 100 µM | > 100 µM | > 100 µM | > 100 µM | > 100 µM | > 100 µM |
